Results published in patent US7157430B2, “(Substituted)acyl dipeptidyl inhibitors of the ICE/CED-3 family of cysteine proteases” (Idun Pharmaceuticals, Inc., priority 1998, dated 2007).

Experiments:
Type in all cases: biochemical
Conditions in all cases: continuous assay 60 min, reaction initiated by adding enzyme
[1] = biological target: MCH-5 (Homo sapiens, UniProt Q14790); test: Dissociation constant Ki and irreversible rate constant k3 for irreversible inhibitors, Mch5
From the text: (§1) For the irreversible inhibition of a ICE/ced-3 Family Protease enzyme with a competitive irreversible inhibitor; using the model represented by the following formulas: […]
(§2) The product formation at time t may be expressed as:
(§3) [formula] where E, I, EI and E-I denote the active enzyme, inhibitor, non-covalent enzyme-inhibitor complex and covalent enzyme-inhibitor adduct, respectively. The Ki value is the overall dissociation constant of the reversible binding steps, and k3 is the irreversible rate constant. The [S] and Ks values are the substate concentration and dissociation constant of the substrate bound to the enzyme, respectively. [E]^T is the total enzyme concentration.
(§4) The above equations were used to determine the Ki and k3 values of a given inhibitor bound to a ICE/ced-3 family protease. Thus, a continuous assay was run for sixty minutes at various concentrations of the inhibitor and the substrate. The assay was formulated essentially the same as described above for generating the data in Table 1, except that the reaction was initiated by adding the enzyme to the substrate-inhibitor mixture. The Ki and k3 values were obtained by simulating the product AMC formation as a function of time according to Equation 1.
(§5) The reference compound for this assay was Cbz-ValAlaAsp-CH2F and the values are denoted in Table 2 as “Reference”. The Ki values in Table 2 are in micromolar (μM). The k3/Ki values are in moles^−1 seconds^−1 (M^−1s^−1).

[2] = biological target: T1, MCH-2 (Homo sapiens, UniProt P55212); test: Dissociation constant Ki and irreversible rate constant k3 for irreversible inhibitors, Mch2
T1 sequence (P55212 24-179 limits assumed): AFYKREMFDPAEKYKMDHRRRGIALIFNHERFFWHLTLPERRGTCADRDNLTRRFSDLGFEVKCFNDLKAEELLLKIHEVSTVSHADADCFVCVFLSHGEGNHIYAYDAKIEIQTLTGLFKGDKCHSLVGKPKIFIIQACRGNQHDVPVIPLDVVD
T1 sequence (P55212 194-293 limits assumed): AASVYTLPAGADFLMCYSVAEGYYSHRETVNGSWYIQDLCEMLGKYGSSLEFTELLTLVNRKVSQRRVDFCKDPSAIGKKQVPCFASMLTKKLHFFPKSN
From the text: as §1, §2, §3, §4, §5

[3] = biological target: T2, mICE (Mus musculus, UniProt P29452); test: Dissociation constant Ki and irreversible rate constant k3 for irreversible inhibitors, ICE
T2 sequence (P29452 123-296 limits assumed): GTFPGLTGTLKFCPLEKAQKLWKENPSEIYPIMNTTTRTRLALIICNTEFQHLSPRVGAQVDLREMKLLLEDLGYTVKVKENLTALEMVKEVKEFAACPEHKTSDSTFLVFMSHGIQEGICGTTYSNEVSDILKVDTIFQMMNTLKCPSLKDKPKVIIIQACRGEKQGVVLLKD
T2 sequence (P29452 315-402 limits assumed): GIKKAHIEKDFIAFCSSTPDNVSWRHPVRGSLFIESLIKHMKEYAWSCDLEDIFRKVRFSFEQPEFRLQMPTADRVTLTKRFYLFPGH
From the text: as §1, §2, §3, §4, §5

[4] = biological target: T3, CPP32 (Homo sapiens, UniProt P42574); test: Dissociation constant Ki and irreversible rate constant k3 for irreversible inhibitors, CPP32
T3 sequence (P42574 29-175 limits assumed): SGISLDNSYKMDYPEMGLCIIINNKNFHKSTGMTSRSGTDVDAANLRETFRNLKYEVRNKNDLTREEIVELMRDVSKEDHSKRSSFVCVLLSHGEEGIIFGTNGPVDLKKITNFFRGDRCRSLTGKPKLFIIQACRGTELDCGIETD
T3 sequence (P42574 176-277 limits assumed): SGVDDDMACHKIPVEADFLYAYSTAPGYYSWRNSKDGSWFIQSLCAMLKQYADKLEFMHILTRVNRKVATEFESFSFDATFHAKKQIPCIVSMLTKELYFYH
From the text: as §1, §2, §3, §4, §5

Chain of MCH-5 (Q14790 217-374 limits assumed, species assumed): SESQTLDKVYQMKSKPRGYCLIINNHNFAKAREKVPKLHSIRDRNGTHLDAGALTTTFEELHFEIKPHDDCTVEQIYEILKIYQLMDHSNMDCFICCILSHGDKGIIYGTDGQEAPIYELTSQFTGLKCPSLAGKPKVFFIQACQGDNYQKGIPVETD
Chain of MCH-5 (Q14790 385-479 limits assumed, species assumed): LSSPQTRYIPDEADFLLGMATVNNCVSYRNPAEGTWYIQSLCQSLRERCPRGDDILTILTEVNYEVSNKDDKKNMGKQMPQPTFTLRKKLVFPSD

| SMILES | Ki [1] [nM] | MCH-5 k3/Ki [1] | Ki [2] [nM] | MCH-2 k3/Ki [2] | Ki [3] [nM] | mICE k3/Ki [3] | CPP32 k3/Ki [4] | Ki [4] [nM] |
| --- | --- | --- | --- | --- | --- | --- | --- | --- |
| CC(C)[C@H](NC(=O)COc1cccc2ccccc12)C(=O)N[C@@H](CC(=O)O)C(=O)COP(C)(C)=O [Example 105] | 160 | 3,700 M^−1s^−1 | 233 | 6,090 M^−1s^−1 | 413 | 18,000 M^−1s^−1 | 44,900 M^−1s^−1 | 341 |
| CCCCCCP(=O)(OCC(=O)[C@H](CC(=O)O)NC(=O)[C@@H](NC(=O)COc1cccc2ccccc12)C(C)C)c1ccccc1 (stereo partly shown) [Example 106] | 134 | 10,500 M^−1s^−1 | 80 | 52,900 M^−1s^−1 | 167 | 42,500 M^−1s^−1 | 155,000 M^−1s^−1 | 48 |
| CCCCCCP(=O)(OCC(=O)[C@H](CC(=O)O)NC(=O)[C@@H](NC(=O)COc1cccc2ccccc12)C(C)C)c1ccc(F)cc1 (stereo partly shown) [Example 109] | 219 | 4,070 M^−1s^−1 | 119 | 16,800 M^−1s^−1 | 453 | 15,500 M^−1s^−1 | 48,300 M^−1s^−1 | 136 |
| Cc1cc(OCC(=O)[C@H](CC(=O)O)NC(=O)[C@@H](NC(=O)COc2cccc3ccccc23)C(C)C)cc(=O)o1 [Example 111] | 2870 | 170 M⁻¹ s⁻¹ | 2160 | 230 M⁻¹ s⁻¹ | 308 | 6,500 M^−1s^−1 | 21,900 M^−1s^−1 | 220 |
| CC(C)[C@H](NC(=O)COc1cccc2ccccc12)C(=O)N[C@@H](CC(=O)O)C(=O)COc1c(-c2ccccc2)oc2ccccc2c1=O [Example 115] | 4670 | 0 M⁻¹ s⁻¹ | 54 | 0 M⁻¹ s⁻¹ | 324 | 8,740 M^−1s^−1 | 127,000 M^−1s^−1 | 46 |
| CC(C)[C@H](NC(=O)COc1cccc2ccccc12)C(=O)N[C@@H](CC(=O)O)C(=O)COc1ccnc(C(F)(F)F)n1 [Example 121] | 276 | 3,200 M^−1s^−1 | 120 | 5,150 M^−1s^−1 | 242 | 24,800 M^−1s^−1 | 114,000 M^−1s^−1 | 47 |
| Cc1nnc(SCC(=O)[C@H](CC(=O)O)NC(=O)[C@@H](NC(=O)COc2cccc3ccccc23)C(C)C)s1 [Example 128] | 4480 | 0 M⁻¹ s⁻¹ | 2410 | 83 M⁻¹ s⁻¹ | 213 | 5,480 M^−1s^−1 | 5,240 M^−1s^−1 | 254 |
| COC(=O)c1cc(OCC(=O)[C@H](CC(=O)O)NC(=O)[C@@H](NC(=O)COc2cccc3ccccc23)C(C)C)no1 [Example 144] | 155 | 6,340 M^−1s^−1 | 70 | 5,800 M^−1s^−1 | 126 | 42,500 M^−1s^−1 | 144,000 M^−1s^−1 | 54 |
| CC(C)[C@H](NC(=O)COc1ccccc1-c1ccccc1)C(=O)N[C@@H](CC(=O)O)C(=O)COC(=O)c1c(Cl)cccc1Cl [Example 150] | 127 | 9,340 M^−1s^−1 | 9 | 400,000 M^−1s^−1 | 263 | 43,700 M^−1s^−1 | 698,000 M^−1s^−1 | 16 |
| CC(C)[C@H](NC(=O)COc1ccccc1-c1ccccc1)C(=O)N[C@@H](CC(=O)O)C(=O)COc1c(F)cc(F)cc1F [Example 151] | 270 | 5,900 M^−1s^−1 | 23 | 88,100 M^−1s^−1 | 349 | 29,600 M^−1s^−1 | 257,000 M^−1s^−1 | 32 |
| CC(C)[C@H](NC(=O)COc1ccc2ccccc2c1)C(=O)N[C@@H](CC(=O)O)C(=O)COC(=O)c1c(Cl)cccc1Cl [Example 155] | 136 | 7,910 M^−1s^−1 | 15 | 166,000 M^−1s^−1 | 168 | 59,800 M^−1s^−1 | 206,000 M^−1s^−1 | 47 |
| CC(C)[C@H](NC(=O)COc1ccc2ccccc2c1)C(=O)N[C@@H](CC(=O)O)C(=O)COc1c(F)cc(F)cc1F [Example 156] | 293 | 3,990 M^−1s^−1 | 52 | 14,900 M^−1s^−1 | 438 | 20,200 M^−1s^−1 | 49,700 M^−1s^−1 | 148 |
| CC(C)[C@H](NC(=O)CCOc1cccc2ccccc12)C(=O)N[C@@H](CC(=O)O)C(=O)COC(=O)c1c(Cl)cccc1Cl [Example 158] | 264 | 1,610 M^−1s^−1 | 22 | 103,000 M^−1s^−1 | 168 | 34,300 M^−1s^−1 | 98,200 M^−1s^−1 | 109 |

The next compounds have a lower Ki [1] than those just listed; values first:

| Ki [1] [nM] | MCH-5 k3/Ki [1] | Ki [2] [nM] | MCH-2 k3/Ki [2] | Ki [3] [nM] | mICE k3/Ki [3] | CPP32 k3/Ki [4] | Ki [4] [nM] | SMILES |
| --- | --- | --- | --- | --- | --- | --- | --- | --- |
| 59 | 15,500 M^−1s^−1 | 37 | 50,200 M^−1s^−1 | 133 | 50,600 M^−1s^−1 | 151,000 M^−1s^−1 | 54 | CC(C)[C@H](NC(=O)COc1cccc2ccccc12)C(=O)N[C@@H](CC(=O)O)C(=O)COP(C)(=O)c1ccccc1 (stereo partly shown) [Example 104] |
| 48 | 27,800 M^−1s^−1 | 21 | 187,000 M^−1s^−1 | 66 | 106,000 M^−1s^−1 | 424,000 M^−1s^−1 | 14 | CC(C)[C@H](NC(=O)COc1cccc2ccccc12)C(=O)N[C@@H](CC(=O)O)C(=O)COP(=O)(Cc1ccccc1)c1ccccc1 (stereo partly shown) [Example 107] |
| 105 | 9,890 M^−1s^−1 | 37 | 60,400 M^−1s^−1 | 147 | 37,900 M^−1s^−1 | 140,000 M^−1s^−1 | 41 | CC(C)[C@H](NC(=O)COc1cccc2ccccc12)C(=O)N[C@@H](CC(=O)O)C(=O)COP(C)(=O)c1ccc(F)cc1 (stereo partly shown) [Example 108] |
| 43 | 18,800 M^−1s^−1 | 15 | 150,000 M^−1s^−1 | 59 | 64,900 M^−1s^−1 | 272,000 M^−1s^−1 | 35 | CC(C)[C@H](NC(=O)COc1cccc2ccccc12)C(=O)N[C@@H](CC(=O)O)C(=O)COP(C)(=O)c1cccc2ccccc12 (stereo partly shown) [Example 110] |
| 37 | 14,500 M^−1s^−1 | 28 | 8,500 M^−1s^−1 | 205 | 28,300 M^−1s^−1 | 121,000 M^−1s^−1 | 50 | CC(C)[C@H](NC(=O)COc1cccc2ccccc12)C(=O)N[C@@H](CC(=O)O)C(=O)COc1cc(C(F)(F)F)nn1-c1ccccc1 [Example 143] |
| 66 | 16,600 M^−1s^−1 | 11 | 191,000 M^−1s^−1 | 191 | 29,300 M^−1s^−1 | 241,000 M^−1s^−1 | 29 | CC(C)[C@H](NC(=O)COc1ccccc1-c1ccccc1)C(=O)N[C@@H](CC(=O)O)C(=O)COc1c(F)c(F)cc(F)c1F [Example 152] |
| 72 | 11,600 M^−1s^−1 | 22 | 72,000 M^−1s^−1 | 225 | 39,300 M^−1s^−1 | 53,300 M^−1s^−1 | 257 | CC(C)[C@H](NC(=O)COc1ccc2ccccc2c1)C(=O)N[C@@H](CC(=O)O)C(=O)COc1c(F)c(F)cc(F)c1F [Example 157] |
